Laboratory results as given in PubChem BioAssay AID2060883 (Molecular Pharmacology Branch, DTP, NCI, 2025).

Test system: 843782-103-R-J1-PDC complex spheroid viability
Experiment: Anticancer human tumor 843782-103-R-J1-PDC patient-derived lung adenocarcinoma cell line growth inhibition [RAS]
Settings: for IC50: curve of first compound; for viability, T/C: stronger effect = lower value; active = viability on the fitted dose curve at most 10% of control; inactive = the rest
Procedure, shortened: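 Multi-cell-type spheroids: tumor cells plus HUVEC endothelial cells and mesenchymal stem cells. RAS-pathway inhibitors were combined with targeted agents, each dosed in half-log steps down from clinical Cmax, or from 10 microM when Cmax was unknown.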

[1] = second compound 0.0316 µM, first compound 0.00316 µM
[2] = second compound 0.0316 µM, first compound 0.01 µM
[3] = second compound 0.0316 µM, first compound 0.0316 µM
[4] = second compound 0.0316 µM, first compound 0.1 µM
[5] = second compound 0.0316 µM, first compound 0.316 µM
[6] = second compound 0.0316 µM, first compound 1 µM
[7] = second compound 0.1 µM, first compound 0.00316 µM
[8] = second compound 0.1 µM, first compound 0.01 µM
[9] = second compound 0.1 µM, first compound 0.0316 µM
[10] = second compound 0.1 µM, first compound 0.1 µM
[11] = second compound 0.1 µM, first compound 0.316 µM
[12] = second compound 0.1 µM, first compound 1 µM
[13] = second compound 0.316 µM, first compound 0.00316 µM
[14] = second compound 0.316 µM, first compound 0.01 µM
[15] = second compound 0.316 µM, first compound 0.0316 µM
[16] = second compound 0.316 µM, first compound 0.1 µM
[17] = second compound 0.316 µM, first compound 0.316 µM
[18] = second compound 0.316 µM, first compound 1 µM
[19] = second compound 1 µM, first compound 0.00316 µM
[20] = second compound 1 µM, first compound 0.01 µM
[21] = second compound 1 µM, first compound 0.0316 µM
[22] = second compound 1 µM, first compound 0.1 µM
[23] = second compound 1 µM, first compound 0.316 µM
[24] = second compound 1 µM, first compound 1 µM
[25] = second compound 3.16 µM, first compound 0.00316 µM
[26] = second compound 3.16 µM, first compound 0.01 µM
[27] = second compound 3.16 µM, first compound 0.0316 µM
[28] = second compound 3.16 µM, first compound 0.1 µM
[29] = second compound 3.16 µM, first compound 0.316 µM
[30] = second compound 3.16 µM, first compound 1 µM
[31] = second compound 10 µM, first compound 0.00316 µM
[32] = second compound 10 µM, first compound 0.01 µM
[33] = second compound 10 µM, first compound 0.0316 µM
[34] = second compound 10 µM, first compound 0.1 µM
[35] = second compound 10 µM, first compound 0.316 µM
[36] = second compound 10 µM, first compound 1 µM
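Also: viability read after seven days of compound exposure.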

C=CC(=O)N1CCN(c2nc(OCC3CCCN3C)nc3c(F)c(-c4nc(N)cc(C)c4C(F)(F)F)c(Cl)cc23)C(C)C1 (stereo not drawn) + C#Cc1c(F)ccc2cc(O)cc(-c3ncc4c(N5CC6CCC(C5)N6)nc(OCC56CCCN5CC(F)C6)nc4c3F)c12
inactive: viability, T/C [1] 89.9% | viability, T/C [2] 81.1% | viability, T/C [3] 83.3% | viability, T/C [4] 76.3% | viability, T/C [5] 88.4% | viability, T/C [6] 79.5% | viability, T/C [7] 89.7% | viability, T/C [8] 83.1% | viability, T/C [9] 74.4% | viability, T/C [10] 78.1% | viability, T/C [11] 69.8% | viability, T/C [12] 80.6% | viability, T/C [13] 86.5% | viability, T/C [14] 68.1% | viability, T/C [15] 74.8% | viability, T/C [16] 78.8% | viability, T/C [17] 77.4% | viability, T/C [18] 76.1% | viability, T/C [19] 81% | viability, T/C [20] 74.1% | viability, T/C [21] 79.3% | viability, T/C [22] 69.3% | viability, T/C [23] 65.8% | viability, T/C [24] 68.5% | viability, T/C [25] 62.2% | viability, T/C [26] 67.2% | viability, T/C [27] 70% | viability, T/C [28] 64.3% | viability, T/C [29] 60.1% | viability, T/C [30] 64.5% | viability, T/C [31] 39.6% | viability, T/C [32] 57% | viability, T/C [33] 44.8% | viability, T/C [34] 49.7% | viability, T/C [35] 40.5% | viability, T/C [36] 40.5%
< 0.00316 µM: IC50 (second compound 10 µM)
> 1 µM: IC50 (second compound 0.0316 µM) | IC50 (second compound 0.1 µM) | IC50 (second compound 0.316 µM) | IC50 (second compound 1 µM) | IC50 (second compound 3.16 µM)

CC(=O)OC12COC1CC(O)C1(C)C(=O)C(O)C3=C(C)C(OC(=O)C(O)C(NC(=O)OC(C)(C)C)c4ccccc4)CC(O)(C(OC(=O)c4ccccc4)C21)C3(C)C (stereo not drawn) + C#Cc1c(F)ccc2cc(O)cc(-c3ncc4c(N5CC6CCC(C5)N6)nc(OCC56CCCN5CC(F)C6)nc4c3F)c12
< 0.0316 µM: IC50 (second compound 0.0316 µM) | IC50 (second compound 0.1 µM) | IC50 (second compound 0.316 µM) | IC50 (second compound 1 µM) | IC50 (second compound 3.16 µM) | IC50 (second compound 10 µM)
active: viability, T/C [3] 4.52% | viability, T/C [4] 3.3% | viability, T/C [5] 5.75% | viability, T/C [6] 5.44% | viability, T/C (second compound 0.0316 µM, first compound 3.16 µM) 6.53% | viability, T/C (second compound 0.0316 µM, first compound 10 µM) 7.38% | viability, T/C [9] 5.17% | viability, T/C [10] 4.75% | viability, T/C [11] 5.48% | viability, T/C [12] 5.75% | viability, T/C (second compound 0.1 µM, first compound 3.16 µM) 5.28% | viability, T/C (second compound 0.1 µM, first compound 10 µM) 6.18% | viability, T/C [15] 5.18% | viability, T/C [16] 5.95% | viability, T/C [17] 5.15% | viability, T/C [18] 5.27% | viability, T/C (second compound 0.316 µM, first compound 3.16 µM) 4.44% | viability, T/C (second compound 0.316 µM, first compound 10 µM) 8.29% | viability, T/C [21] 4.8% | viability, T/C [22] 6.07% | viability, T/C [23] 7.89% | viability, T/C [24] 6.08% | viability, T/C (second compound 1 µM, first compound 3.16 µM) 5.69% | viability, T/C (second compound 1 µM, first compound 10 µM) 8.43% | viability, T/C [27] 5.43% | viability, T/C [28] 5.83% | viability, T/C [29] 5.33% | viability, T/C [30] 4.35% | viability, T/C (second compound 3.16 µM, first compound 3.16 µM) 6.83% | viability, T/C (second compound 3.16 µM, first compound 10 µM) 8.8% | viability, T/C [33] 5.06% | viability, T/C [34] 3.91% | viability, T/C [35] 6.9% | viability, T/C [36] 4.34% | viability, T/C (second compound 10 µM, first compound 3.16 µM) 3.89% | viability, T/C (second compound 10 µM, first compound 10 µM) 7.89%

CCc1c2c(nc3ccc(O)cc13)-c1cc3c(c(=O)n1C2)COC(=O)[C@]3(O)CC + C#Cc1c(F)ccc2cc(O)cc(-c3ncc4c(N5CC6CCC(C5)N6)nc(OCC56CCCN5CC(F)C6)nc4c3F)c12
inactive: viability, T/C (second compound 0.0316 µM, first compound 0.000949 µM) 103% | viability, T/C (second compound 0.0316 µM, first compound 0.003 µM) 15.3% | viability, T/C (second compound 0.1 µM, first compound 0.000949 µM) 104% | viability, T/C (second compound 0.1 µM, first compound 0.003 µM) 19.6% | viability, T/C (second compound 0.316 µM, first compound 0.000949 µM) 96.8% | viability, T/C (second compound 0.316 µM, first compound 0.003 µM) 20.8% | viability, T/C (second compound 1 µM, first compound 0.000949 µM) 85.5% | viability, T/C (second compound 1 µM, first compound 0.003 µM) 26.8% | viability, T/C (second compound 3.16 µM, first compound 0.000949 µM) 73.4% | viability, T/C (second compound 3.16 µM, first compound 0.003 µM) 21.8% | viability, T/C (second compound 10 µM, first compound 0.000949 µM) 42.2% | viability, T/C (second compound 10 µM, first compound 0.003 µM) 12.1%
0.00162 µM: IC50 (second compound 3.16 µM)
< 0.000949 µM: IC50 (second compound 10 µM)
0.00191 µM: IC50 (second compound 0.0316 µM) | IC50 (second compound 1 µM)
0.002 µM: IC50 (second compound 0.1 µM)
active: viability, T/C (second compound 0.0316 µM, first compound 0.00949 µM) 8.79% | viability, T/C (second compound 0.0316 µM, first compound 0.03 µM) 2.87% | viability, T/C (second compound 0.0316 µM, first compound 0.0949 µM) 1.58% | viability, T/C (second compound 0.0316 µM, first compound 0.3 µM) 0.53% | viability, T/C (second compound 0.1 µM, first compound 0.00949 µM) 8.39% | viability, T/C (second compound 0.1 µM, first compound 0.03 µM) 4.21% | viability, T/C (second compound 0.1 µM, first compound 0.0949 µM) 1.08% | viability, T/C (second compound 0.1 µM, first compound 0.3 µM) 0.68% | viability, T/C (second compound 0.316 µM, first compound 0.00949 µM) 8.99% | viability, T/C (second compound 0.316 µM, first compound 0.03 µM) 3.62% | viability, T/C (second compound 0.316 µM, first compound 0.0949 µM) 1.15% | viability, T/C (second compound 0.316 µM, first compound 0.3 µM) 0.74% | viability, T/C (second compound 1 µM, first compound 0.00949 µM) 7.99% | viability, T/C (second compound 1 µM, first compound 0.03 µM) 3.68% | viability, T/C (second compound 1 µM, first compound 0.0949 µM) 1.44% | viability, T/C (second compound 1 µM, first compound 0.3 µM) 0.87% | viability, T/C (second compound 3.16 µM, first compound 0.00949 µM) 10.4% | viability, T/C (second compound 3.16 µM, first compound 0.03 µM) 4.24% | viability, T/C (second compound 3.16 µM, first compound 0.0949 µM) 1.56% | viability, T/C (second compound 3.16 µM, first compound 0.3 µM) 0.77% | viability, T/C (second compound 10 µM, first compound 0.00949 µM) 9.81% | viability, T/C (second compound 10 µM, first compound 0.03 µM) 3.11% | viability, T/C (second compound 10 µM, first compound 0.0949 µM) 1.08% | viability, T/C (second compound 10 µM, first compound 0.3 µM) 0.39%
0.00195 µM: IC50 (second compound 0.316 µM)

Nc1ccn(C2OC(CO)C(O)C2(F)F)c(=O)n1 (stereo not drawn) + C#Cc1c(F)ccc2cc(O)cc(-c3ncc4c(N5CC6CCC(C5)N6)nc(OCC56CCCN5CC(F)C6)nc4c3F)c12
active: viability, T/C [4] 8.18% | viability, T/C [5] 2.69% | viability, T/C [6] 1.88% | viability, T/C [10] 8.24% | viability, T/C [11] 1.77% | viability, T/C [12] 1.7% | viability, T/C [16] 5.81% | viability, T/C [17] 2.1% | viability, T/C [18] 2.74% | viability, T/C [23] 2.99% | viability, T/C [24] 2.29% | viability, T/C [29] 2.53% | viability, T/C [30] 1.91% | viability, T/C [34] 9.79% | viability, T/C [35] 3.81% | viability, T/C [36] 3%
0.0426 µM: IC50 (second compound 0.316 µM)
0.0326 µM: IC50 (second compound 1 µM)
0.0143 µM: IC50 (second compound 10 µM)
inactive: viability, T/C [1] 101% | viability, T/C [2] 101% | viability, T/C [3] 46.1% | viability, T/C [7] 99.5% | viability, T/C [8] 106% | viability, T/C [9] 59.7% | viability, T/C [13] 107% | viability, T/C [14] 103% | viability, T/C [15] 65.4% | viability, T/C [19] 110% | viability, T/C [20] 90.7% | viability, T/C [21] 54.1% | viability, T/C [22] 9.25% | viability, T/C [25] 93% | viability, T/C [26] 73.8% | viability, T/C [27] 40% | viability, T/C [28] 7.44% | viability, T/C [31] 64.6% | viability, T/C [32] 59.5% | viability, T/C [33] 30.3%
0.0293 µM: IC50 (second compound 0.0316 µM)
0.0218 µM: IC50 (second compound 3.16 µM)
0.0393 µM: IC50 (second compound 0.1 µM)
